Assay results: US20240016748A1, “DIRECT DELIVERY OF VITAMINS TO INHIBIT MICROBIAL PATHOGENS” (DSM IP ASSETS B.V., priority 2020, published 2024)

Key:
[1] = tested on: adherent-invasive E. coli (AIEC); assay: Short-term pathogen challenge test, AIEC; format: cell-based, Escherichia coli; conditions: positive control, 125 ppm; 48 h colonic incubation
Salmonella enteritidis = assay: Short-term pathogen challenge test, Salmonella enteritidis; format: cell-based; conditions: positive control, 125 ppm; 48 h colonic incubation

SMILES: O=C(O)c1cn(C2CC2)c2cc(N3CCNCC3)c(F)cc2c1=O [ciprofloxacin]
- abundance of AIEC [1]: decreased abundance of AIEC
- abundance of Salmonella enteritidis (Salmonella enteritidis): strongly decreased abundance of Salmonella enteritidis
